Laboratory results published in US20230027361A1, “METTL3 MODULATORS” (priority 2019, published 2023).
Like-named read-outs stand apart in the source and are kept apart here.

How the values were obtained:
METTL3/METTL14 = METTL3/METTL14 (Homo sapiens, UniProt Q86U44); experiment: METTL3-14 Standard Enzyme Assay (METTL3 biochemical assay)
In short: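 METTL3/METTL14 at 2.5 nM, preincubated 5 min with compound in 20 mM HEPES pH 7.5, 50 mM KCl, 250 μM MgCl2, 1 mM DTT, at ambient temperature. Started with 100 nM 3′-biotinylated RNA and 100 nM ³H-SAM, quenched at 30 min with 15 μM cold SAM. Methylation read by scintillation on streptavidin flashplates.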

METTL1/WDR4 = METTL1/WDR4 (Homo sapiens, UniProt Q9UBP6); experiment: METTL1 Assay (METTL1 biochemical assay)
METTL1/WDR4, sequence (Q9UBP6 whole entry, species assumed): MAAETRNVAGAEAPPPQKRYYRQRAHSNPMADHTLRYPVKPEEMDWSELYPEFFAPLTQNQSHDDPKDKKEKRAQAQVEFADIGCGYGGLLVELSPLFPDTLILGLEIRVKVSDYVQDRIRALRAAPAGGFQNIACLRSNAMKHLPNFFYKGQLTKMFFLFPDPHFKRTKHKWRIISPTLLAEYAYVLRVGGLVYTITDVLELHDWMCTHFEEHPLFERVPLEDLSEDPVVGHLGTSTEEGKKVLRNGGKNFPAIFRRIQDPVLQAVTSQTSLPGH
METTL1/WDR4, sequence (P57081 whole entry partner, species assumed): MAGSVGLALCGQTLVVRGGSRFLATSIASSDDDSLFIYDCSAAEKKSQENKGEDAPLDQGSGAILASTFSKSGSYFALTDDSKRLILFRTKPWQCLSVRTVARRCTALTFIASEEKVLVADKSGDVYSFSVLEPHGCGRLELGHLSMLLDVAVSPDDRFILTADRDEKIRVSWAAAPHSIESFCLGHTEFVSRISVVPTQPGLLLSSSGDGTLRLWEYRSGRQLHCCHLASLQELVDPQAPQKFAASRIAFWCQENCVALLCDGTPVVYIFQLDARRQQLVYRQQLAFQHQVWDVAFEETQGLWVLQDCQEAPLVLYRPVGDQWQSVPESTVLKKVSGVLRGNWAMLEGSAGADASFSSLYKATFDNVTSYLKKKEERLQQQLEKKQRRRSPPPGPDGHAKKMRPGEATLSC
In short: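 Radiometric methyltransfer by METTL1/WDR4 (6.25 nM f.c., 5 min preincubation) at ambient temperature in HEPES pH 7.5, KCl, MgCl2, DTT; started with 25 nM 3′-biotinylated RNA and 60 nM 3H-SAM, run 20 min, quenched with 15 μM cold SAM. Product captured on streptavidin flashplates (2 h, 25° C), counted by scintillation.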

PRMT5-MEP50 = PRMT5-MEP50 (Homo sapiens, UniProt O14744); experiment: PRMT5 Assay (PRMT5 biochemical assay)
PRMT5-MEP50, sequence (O14744 whole entry): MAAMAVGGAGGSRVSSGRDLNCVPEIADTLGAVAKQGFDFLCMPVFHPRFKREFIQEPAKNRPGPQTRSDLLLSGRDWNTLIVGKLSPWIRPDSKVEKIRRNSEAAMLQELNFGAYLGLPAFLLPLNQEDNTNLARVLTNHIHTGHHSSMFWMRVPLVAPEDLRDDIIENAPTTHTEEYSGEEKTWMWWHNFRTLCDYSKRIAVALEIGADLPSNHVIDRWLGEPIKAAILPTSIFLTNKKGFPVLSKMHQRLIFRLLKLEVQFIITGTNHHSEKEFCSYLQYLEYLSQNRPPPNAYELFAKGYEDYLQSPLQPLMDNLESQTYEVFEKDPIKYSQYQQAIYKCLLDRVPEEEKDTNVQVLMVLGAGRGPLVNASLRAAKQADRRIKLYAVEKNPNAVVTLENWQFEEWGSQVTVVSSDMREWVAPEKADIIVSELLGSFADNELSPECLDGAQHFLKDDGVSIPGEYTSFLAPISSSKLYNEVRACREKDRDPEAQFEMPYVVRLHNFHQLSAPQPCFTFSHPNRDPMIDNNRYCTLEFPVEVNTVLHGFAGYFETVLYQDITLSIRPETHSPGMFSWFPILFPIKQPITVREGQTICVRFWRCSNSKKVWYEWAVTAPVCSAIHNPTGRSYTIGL
PRMT5-MEP50, sequence (Q9BQA1 whole entry partner): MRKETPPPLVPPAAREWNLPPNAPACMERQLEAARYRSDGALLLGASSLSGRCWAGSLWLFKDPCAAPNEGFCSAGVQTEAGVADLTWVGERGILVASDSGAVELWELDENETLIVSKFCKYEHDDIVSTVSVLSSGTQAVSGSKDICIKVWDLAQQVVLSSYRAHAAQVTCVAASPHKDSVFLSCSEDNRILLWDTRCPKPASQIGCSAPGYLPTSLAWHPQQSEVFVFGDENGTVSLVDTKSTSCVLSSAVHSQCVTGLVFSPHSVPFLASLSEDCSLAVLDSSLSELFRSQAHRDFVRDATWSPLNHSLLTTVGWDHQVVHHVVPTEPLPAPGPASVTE
In short: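 PRMT5-MEP50 (2.5 nM final) preincubated 5 min with compound, then reacted 60 min at ambient temperature with 100 nM biotinylated N-acetyl histone H4 peptide and 250 nM 3H-SAM in 20 mM Tris-HCl pH 8.0, 1 mM DTT, 0.01% Tween. Quenched with 15 μM cold SAM; methylated peptide captured on streptavidin flashplates, scintillation counted.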

[1] = tested on: m6A in cellular mRNA of MOLM-13 cells; experiment: m6A-mRNA LC-MS/MS Assay (m6A cellular assay); format: cell-based; settings: Homo sapiens, MOLM-13, read-out: m^6A IC50
Procedure: Cells were harvested by centrifugation followed by mRNA extraction using DIRECT Dynabeads mRNA DIRECT kit (Life Technologies). mRNA was quantified on NanoDrop spectrophotometer (Thermo Fisher Scientific) and digested into single nucleosides using Nucleoside Digestion Mix (New England Biolabs). […] Quantification is performed in comparison with the standard curve, obtained from pure nucleoside standards (Selleck Chemicals) running with the same batch of samples. Percentage m^6A in cellular mRNA is calculated as 100*(m^6A/A).

MOLM-13 cells [2] = experiment: MOLM-13 48 Hour Cell Proliferation Assay; format: cell-based; settings: Homo sapiens
Procedure: MOLM-13 (DSMZ) cells were seeded at 1000 cells per well in a volume of 44 μL in a Falcon 384-well tissue culture treated clear bottom microplate in RPMI 1640 media containing 10% fetal bovine serum using a Multidrop Combi (ThermoFisher Scientific). Cells were incubated overnight at 37° C. in a humidified tissue culture incubator. The Mosquito® HTS Liquid Handler was used to make a compound/media intermediate plate by aliquoting 1 μL of compound from the initial compound dilution plate (concentrations ranging from 10.0 mM to 38.0 nM in 100% DMSO) into a V bottom 384-well screen matrix plate containing 49 μL of media containing the appropriate serum (50-fold dilution, 2% DMSO). The Apricot liquid handling system was used to transfer 6.2 μL compounds from the intermediate plate into the Falcon 384-well tissue culture plate containing 44 μL cells (10-point, 4-fold dilution spanning concentrations 25.0 μM to […], 0.25% DMSO final), and placed in a humidified tissue culture incubator at 37° C. After 48 hours, 25 μL of Cell Titer-Glo reagent (Promega) was added to each well using a Multidrop Combi. The plate was protected from light and placed on an IKA plate shaker for at 300 rpm for 10 minutes at room temperature. The plate was read on an EnVision plate reader (Perkin Elmer) using the Ultra Sensitive Luminescence protocol. Data analysis was performed by normalizing the raw luminescence units to an average of the positive control values for staurosporine (100% cell death) and the negative control values for DMSO (0% cell death). An IC50 was calculated using a 4-parameter logistic nonlinear regression model in GraphPad Prism.

MOLM-13 cells [3] = experiment: MOLM-13 96 Hour Cell Proliferation Assay; format: cell-based; settings: Homo sapiens, MOLM-13, 96 h
In short: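 MOLM-13 cells in RPMI 1640 with 10% FBS were plated overnight at 37 °C, then exposed to compound dilutions at 0.25% DMSO final for 96 h. Viability was read by CellTiter-Glo luminescence, normalised to staurosporine (100% death) and DMSO (0% death) controls, and IC50 was fitted by 4-parameter logistic regression.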

[4] = METTL3 biochemical assay; read-out: METTL3 IC50
[5] = PRMT5 biochemical assay; read-out: PRMT5 IC50
[6] = read-out: METTL1 IC50, METTL1 biochemical assay

METTL3/METTL14, sequence (Q86U44 whole entry, species assumed): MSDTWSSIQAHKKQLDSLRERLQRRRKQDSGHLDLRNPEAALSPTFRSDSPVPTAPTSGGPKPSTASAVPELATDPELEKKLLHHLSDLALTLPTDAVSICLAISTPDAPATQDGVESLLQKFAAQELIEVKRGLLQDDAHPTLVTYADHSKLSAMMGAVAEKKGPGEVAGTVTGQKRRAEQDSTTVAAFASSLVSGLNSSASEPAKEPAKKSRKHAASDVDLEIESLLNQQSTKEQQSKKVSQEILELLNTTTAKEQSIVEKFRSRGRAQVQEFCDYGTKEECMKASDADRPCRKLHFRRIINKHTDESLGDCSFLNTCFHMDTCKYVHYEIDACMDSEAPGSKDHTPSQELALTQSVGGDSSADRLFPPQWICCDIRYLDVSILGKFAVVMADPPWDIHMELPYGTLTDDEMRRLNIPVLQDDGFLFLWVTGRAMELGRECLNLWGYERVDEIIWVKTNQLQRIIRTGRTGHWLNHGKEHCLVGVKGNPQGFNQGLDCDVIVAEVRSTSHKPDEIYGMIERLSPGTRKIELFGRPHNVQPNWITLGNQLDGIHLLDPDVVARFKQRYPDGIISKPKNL
METTL3/METTL14, sequence (Q9HCE5 whole entry partner, species assumed): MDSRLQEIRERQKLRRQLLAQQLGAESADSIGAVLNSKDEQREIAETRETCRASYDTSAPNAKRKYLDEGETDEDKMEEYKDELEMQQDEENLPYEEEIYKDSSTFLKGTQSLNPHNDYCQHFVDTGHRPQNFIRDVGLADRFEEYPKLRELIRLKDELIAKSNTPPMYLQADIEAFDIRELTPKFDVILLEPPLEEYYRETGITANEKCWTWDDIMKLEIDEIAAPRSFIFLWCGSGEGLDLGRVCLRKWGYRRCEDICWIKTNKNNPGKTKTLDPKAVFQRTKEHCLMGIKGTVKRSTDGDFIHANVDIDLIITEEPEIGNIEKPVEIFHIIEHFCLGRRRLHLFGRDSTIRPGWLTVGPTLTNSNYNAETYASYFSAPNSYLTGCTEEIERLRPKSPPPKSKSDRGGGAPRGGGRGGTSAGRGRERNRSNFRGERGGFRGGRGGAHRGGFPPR

SMILES | IC50 (METTL3/METTL14; [4]) | IC50 (METTL1/WDR4) | IC50 (PRMT5-MEP50; [5]) | IC50 [1] | IC50 (MOLM-13 cells [2]) | IC50 (MOLM-13 cells [3]) | IC50 (METTL1/WDR4; [6]) | IC50 (METTL3/METTL14; read-out: METTL3 IC50; METTL3 biochemical assay) | IC50 (METTL1/WDR4; METTL1 biochemical assay, read-out: METTL1 IC50) | IC50 (PRMT5-MEP50; read-out: PRMT5 IC50; PRMT5 biochemical assay)
CNc1ccc2ccc(OC[C@H]3O[C@@H](n4cc(C5CCCC5)c5c(N)ncnc54)C[C@@H]3O)cc2n1 [I-30, (2R,3S,5R)-5-(4-amino-5-cyclopentyl-7H-pyrrolo[2,3-d]pyrimidin-7-yl)-2-(((2-(methylamino)quinolin-7-yl)oxy)methyl)tetrahydrofuran-3-ol] | < 10 nM | > 1000 nM | > 1000 nM | 1000 to 10000 nM | 1000 to 10000 nM | < 1000 nM |  |  |  | 
CN(C)c1ccc2ccc(OC[C@H]3O[C@@H](n4cc(C5CCCC5)c5c(N)ncnc54)[C@H](O)[C@@H]3O)cc2n1 [I-42] | < 10 nM |  | 10 to 100 nM | 1000 to 10000 nM | 1000 to 10000 nM | 1000 to 10000 nM | > 1000 nM |  |  | 
CNc1ccc2ccc(OC[C@H]3O[C@@H](n4cc(Cl)c5c(N)ncnc54)[C@@H](F)[C@@H]3O)cc2n1 [I-45, (2R,3R,4S,5R)-5-(4-amino-5-chloro-7H-pyrrolo[2,3-d]pyrimidin-7-yl)-4-fluoro-2-(((2-(methylamino)quinolin-7-yl)oxy)methyl)tetrahydrofuran-3-ol] | < 10 nM | > 1000 nM | 10 to 100 nM | 1000 to 10000 nM | 1000 to 10000 nM | 1000 to 10000 nM |  |  |  | 
CNc1ccc2ccc(OC[C@H]3O[C@@H](n4cc(Br)c5c(N)ncnc54)[C@@H](F)[C@@H]3O)cc2n1 [I-46] | < 10 nM |  | 10 to 100 nM | 1000 to 10000 nM | 1000 to 10000 nM | < 1000 nM | > 1000 nM |  |  | 
CNc1ccc2ccc(OC[C@H]3O[C@@H](n4cc(Cl)c5c(N)ncnc54)C[C@@H]3O)cc2n1 [I-48] | < 10 nM |  | 100 to 1000 nM | 1000 to 10000 nM | > 10000 nM | 1000 to 10000 nM | > 1000 nM |  |  | 
CNc1ccc2ccc(CC[C@H]3C[C@@H](n4cc(C5CCCC5)c5c(N)ncnc54)[C@H](O)[C@@H]3O)cc2n1 [I-55] | < 10 nM |  | < 10 nM | 1000 to 10000 nM | 1000 to 10000 nM | < 1000 nM | > 1000 nM |  |  | 
CNc1ccc2ccc(CC[C@H]3C[C@@H](n4cc(C5CCCCC5)c5c(N)ncnc54)[C@H](O)[C@@H]3O)cc2n1 [I-59] | < 10 nM |  | < 10 nM | 1000 to 10000 nM | 1000 to 10000 nM | < 1000 nM | > 1000 nM |  |  | 
Nc1ncnc2c1ccn2[C@@H]1O[C@H](COc2ccc3ccc(N4CCCC4)nc3c2)[C@@H](O)[C@H]1O [I-75] | 10 to 100 nM |  | 10 to 100 nM | 1000 to 10000 nM | > 10000 nM |  | > 1000 nM |  |  | 
CN(C)c1ccc2ccc(OC[C@H]3O[C@@H](n4ccc5c(N)ncnc54)[C@H](O)[C@@H]3O)cc2n1 [I-78] | 10 to 100 nM |  | 10 to 100 nM | > 10000 nM | > 10000 nM | 1000 to 10000 nM | > 1000 nM |  |  | 
CN(C)c1ccc2ccc(CC[C@H]3C[C@@H](n4ccc5c(N)ncnc54)[C@H](O)[C@@H]3O)cc2n1 [I-98] | 10 to 100 nM |  | 10 to 100 nM | > 10000 nM | > 10000 nM | 1000 to 10000 nM | > 1000 nM |  |  | 
Nc1ncnc2c1ccn2[C@@H]1C[C@H](CCc2ccccn2)[C@@H](O)[C@H]1O [I-118] | > 1000 nM |  | 100 to 1000 nM | > 10000 nM | > 10000 nM | > 10000 nM | > 1000 nM |  |  | 
CNc1ccc2ccc(OC[C@H]3O[C@@H](n4cc(-c5ccc(C)o5)c5c(N)ncnc54)[C@@H](F)[C@@H]3O)cc2n1 [I-148] |  |  |  | < 1000 nM | < 1000 nM | < 1000 nM |  | < 10 nM | > 1000 nM | 100 to 1000 nM
